Strand notation (5' to 3'): a small letter for the sugar, then the base; units joined by * are phosphorothioate-linked, units joined directly phosphodiester-linked; [ ] holds rarer units or linkages, { } end groups; capitals alone tell only the bases. e = 2'-O-(2-methoxyethyl) (MOE); [5mC] = 5-methylcytosine; d = 2'-deoxy (DNA)
System: human PKK mRNA
Assay: Antisense inhibition of human PKK mRNA in HepaRG cells, 5,000 nM (Example 2)
Type: cell-based
Summary of the method: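 HepaRG cells (20,000/well) electroporated with 5,000 nM MOE gapmer (phosphorothioate backbone, 5-methylcytosines) and harvested after ~24 h. PKK mRNA measured by qRT-PCR with primer probe set RTS3454, normalized to RIBOGREEN total RNA; percent inhibition versus untreated cells.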

[1] = human PKK mRNA, HepaRG cells, 5-10-5 motif oligonucleotides targeting SEQ ID NO: 1 and 10
[2] = HepaRG cells, 5,000 nM antisense oligonucleotide, 5-10-5 gapmers, Table 16

Substance | % inhibition [1] [%] | % inhibition [2] [%]
547628 (antisense e[5mC]*eT*e[5mC]*eT*eA*d[5mC]*d[5mC]*dT*dA*dT*dA*dA*d[5mC]*dT*d[5mC]*eT*eA*eA*e[5mC]*eA) [compound 547628] | 34 | –
547629 (antisense eA*e[5mC]*eT*e[5mC]*eT*dA*d[5mC]*d[5mC]*dT*dA*dT*dA*dA*d[5mC]*dT*e[5mC]*eT*eA*eA*e[5mC]) [compound 547629] | 0 | –
547630 (antisense eA*e[5mC]*eT*eG*eT*d[5mC]*d[5mC]*dT*dA*dT*dA*dT*d[5mC]*dA*d[5mC]*eT*e[5mC]*eT*eA*e[5mC]) [compound 547630] | 76 | –
547631 (antisense e[5mC]*eA*e[5mC]*eT*eG*dT*d[5mC]*d[5mC]*dT*dA*dT*dA*dT*d[5mC]*dA*e[5mC]*eT*e[5mC]*eT*eA) [compound 547631] | 85 | –
547634 (antisense eA*eT*e[5mC]*eA*e[5mC]*dT*dG*dT*dA*d[5mC]*dT*dA*dG*dT*dT*eT*eT*e[5mC]*eT*eA) [compound 547634] | 72 | –
547635 (eT*eA*eT*e[5mC]*eA*d[5mC]*dT*dG*dT*dA*d[5mC]*dT*dA*dG*dT*eT*eT*eT*e[5mC]*eT; antisense) [compound 547635] | 53 | –
547638 (eA*eT*eA*eA*e[5mC]*dA*dG*dT*dA*dT*d[5mC]*dA*d[5mC]*dT*dG*eT*eA*e[5mC]*eT*eA; antisense) [compound 547638] | 87 | –
547639 (eG*eT*e[5mC]*e[5mC]*eT*dA*dT*dA*dA*d[5mC]*dT*dA*dT*dA*dA*e[5mC]*eA*eG*eT*eA; antisense) [compound 547639] | 72 | –
547640 (eT*eG*eT*e[5mC]*e[5mC]*dT*dA*dT*dA*dA*d[5mC]*dT*dA*dT*dA*eA*e[5mC]*eA*eG*eT; antisense) [compound 547640] | 13 | –
547641 (e[5mC]*eT*eG*eT*e[5mC]*d[5mC]*dT*dA*dT*dA*dA*d[5mC]*dT*dA*dT*eA*eA*e[5mC]*eA*eG; antisense) [compound 547641] | 43 | –
547642 (eT*e[5mC]*eA*e[5mC]*eT*dG*dT*d[5mC]*d[5mC]*dT*dA*dT*dA*dA*d[5mC]*eT*eA*eT*eA*eA; antisense) [compound 547642] | 72 | –
547643 (eA*eT*e[5mC]*eA*e[5mC]*dT*dG*dT*d[5mC]*d[5mC]*dT*dA*dT*dA*dA*e[5mC]*eT*eA*eT*eA; antisense) [compound 547643] | 72 | –
547644 (eT*eA*eT*e[5mC]*eA*d[5mC]*dT*dG*dT*d[5mC]*d[5mC]*dT*dA*dT*dA*eA*e[5mC]*eT*eA*eT; antisense) [compound 547644] | 51 | –
547645 (eA*eT*eA*eT*e[5mC]*dA*d[5mC]*dT*dG*dT*d[5mC]*d[5mC]*dT*dA*dT*eA*eA*e[5mC]*eT*eA; antisense) [compound 547645] | 60 | –
547646 (e[5mC]*eT*eA*eT*eA*dT*d[5mC]*dA*d[5mC]*dT*dG*dT*dA*d[5mC]*d[5mC]*eT*eA*eT*eA*eA; antisense) [compound 547646] | 23 | –
547648 (e[5mC]*e[5mC]*eT*eA*eT*dA*dA*d[5mC]*dA*dG*dT*dA*dT*d[5mC]*dA*e[5mC]*eT*eG*eT*eA; antisense) [compound 547648] | 83 | –
547649 (eA*e[5mC]*e[5mC]*eT*eA*dT*dA*dA*d[5mC]*dA*dG*dT*dA*dT*d[5mC]*eA*e[5mC]*eT*eG*eT; antisense) [compound 547649] | 73 | –
547650 (eG*eT*eA*e[5mC]*e[5mC]*dT*dA*dT*dA*dA*d[5mC]*dA*dG*dT*dA*eT*e[5mC]*eA*e[5mC]*eT; antisense) [compound 547650] | 32 | –
547651 (eT*eG*eT*eA*e[5mC]*d[5mC]*dT*dA*dT*dA*dA*d[5mC]*dA*dG*dT*eA*eT*e[5mC]*eA*e[5mC]; antisense) [compound 547651] | 48 | –
547652 (eT*e[5mC]*eA*e[5mC]*eT*dG*dT*dA*d[5mC]*d[5mC]*dT*dA*dT*dA*dA*e[5mC]*eA*eG*eT*eA; antisense) [compound 547652] | 59 | –
547653 (eA*eT*e[5mC]*eA*e[5mC]*dT*dG*dT*dA*d[5mC]*d[5mC]*dT*dA*dT*dA*eA*e[5mC]*eA*eG*eT; antisense) [compound 547653] | 57 | –
547654 (eT*eA*eT*e[5mC]*eA*d[5mC]*dT*dG*dT*dA*d[5mC]*d[5mC]*dT*dA*dT*eA*eA*e[5mC]*eA*eG; antisense) [compound 547654] | 53 | –
547655 (eA*eA*eT*eA*eT*d[5mC]*dA*d[5mC]*dT*dG*dT*d[5mC]*d[5mC]*dT*dA*eT*eA*eA*e[5mC]*eT; antisense) [compound 547655] | 37 | –
547656 (e[5mC]*eA*eA*eT*eA*dT*d[5mC]*dA*d[5mC]*dT*dG*dT*d[5mC]*d[5mC]*dT*eA*eT*eA*eA*e[5mC]; antisense) [compound 547656] | 42 | –

Substance | % inhibition [1] [%] | % inhibition [2] [%]
547657 (eA*e[5mC]*eA*eA*eT*dA*dT*d[5mC]*dA*d[5mC]*dT*dG*dT*d[5mC]*d[5mC]*eT*eA*eT*eA*eA; antisense) [compound 547657] | 43 | –
547658 (e[5mC]*eG*eT*eA*e[5mC]*dT*dA*dG*dT*dT*dT*d[5mC]*d[5mC]*dT*dA*eT*eA*eA*e[5mC]*eT; antisense) [compound 547658] | 68 | –
547659 (eA*e[5mC]*eT*eA*eT*dA*dA*d[5mC]*dA*dG*dT*dA*dT*d[5mC]*dA*e[5mC]*e[5mC]*eG*eT*eA; antisense) [compound 547659] | 80 | –
547660 (eA*eA*e[5mC]*eT*eA*dT*dA*dA*d[5mC]*dA*dG*dT*dA*dT*d[5mC]*eA*e[5mC]*e[5mC]*eG*eT; antisense) [compound 547660] | 68 | –
547661 (eT*eA*eA*e[5mC]*eT*dA*dT*dA*dA*d[5mC]*dA*dG*dT*dA*dT*e[5mC]*eA*e[5mC]*e[5mC]*eG; antisense) [compound 547661] | 80 | –
547662 (eA*e[5mC]*e[5mC]*eT*eA*dT*dA*dA*d[5mC]*dT*dA*dT*dA*dA*d[5mC]*eA*eG*eT*eA*eT; antisense) [compound 547662] | 0 | –
547663 (eT*eA*e[5mC]*e[5mC]*eT*dA*dT*dA*dA*d[5mC]*dT*dA*dT*dA*dA*e[5mC]*eA*eG*eT*eA; antisense) [compound 547663] | 10 | –
547664 (eG*eT*eA*e[5mC]*e[5mC]*dT*dA*dT*dA*dA*d[5mC]*dT*dA*dT*dA*eA*e[5mC]*eA*eG*eT; antisense) [compound 547664] | 2 | –
547665 (eT*eG*eT*eA*e[5mC]*d[5mC]*dT*dA*dT*dA*dA*d[5mC]*dT*dA*dT*eA*eA*e[5mC]*eA*eG; antisense) [compound 547665] | 10 | –
547666 (eA*eT*e[5mC]*eA*e[5mC]*dT*dG*dT*dA*d[5mC]*d[5mC]*dT*dA*dT*dA*eA*e[5mC]*eT*eA*eT; antisense) [compound 547666] | 71 | –
547667 (eT*eA*eT*e[5mC]*eA*d[5mC]*dT*dG*dT*dA*d[5mC]*d[5mC]*dT*dA*dT*eA*eA*e[5mC]*eT*eA; antisense) [compound 547667] | 55 | –
547668 (e[5mC]*eA*eA*e[5mC]*eT*dA*dT*dA*dA*d[5mC]*dA*dG*dT*dA*dT*e[5mC]*eA*e[5mC]*eT*eG; antisense) [compound 547668] | 44 | –
547669 (eA*e[5mC]*eA*eA*e[5mC]*dT*dA*dT*dA*dA*d[5mC]*dA*dG*dT*dA*eT*e[5mC]*eA*e[5mC]*eT; antisense) [compound 547669] | 0 | –
547670 (eT*eA*e[5mC]*eA*eA*d[5mC]*dT*dA*dT*dA*dA*d[5mC]*dA*dG*dT*eA*eT*e[5mC]*eA*e[5mC]; antisense) [compound 547670] | 0 | –
547671 (e[5mC]*eT*eA*e[5mC]*eA*dA*d[5mC]*dT*dA*dT*dA*dA*d[5mC]*dA*dG*eT*eA*eT*e[5mC]*eA; antisense) [compound 547671] | 0 | –
547672 (e[5mC]*eA*eA*eT*eA*dT*d[5mC]*dA*d[5mC]*dT*dG*dT*d[5mC]*d[5mC]*dT*eA*e[5mC]*eA*eA*e[5mC]; antisense) [compound 547672] | 36 | –
547673 (eG*eA*eA*eT*eA*dT*d[5mC]*dA*d[5mC]*dT*dG*dT*d[5mC]*d[5mC]*dT*eA*eT*eA*eA*e[5mC]; antisense) [compound 547673] | 21 | –
547674 (eA*e[5mC]*eA*eA*eT*dA*dT*d[5mC]*dA*d[5mC]*dT*dG*dT*dA*d[5mC]*e[5mC]*eT*eT*eT*eA; antisense) [compound 547674] | 53 | –
547675 (antisense eT*eG*eT*e[5mC]*e[5mC]*dT*dA*dT*dA*dA*d[5mC]*dT*dA*dT*dA*eA*e[5mC]*eA*eA*eT) [compound 547675] | 10 | –
547676 (antisense e[5mC]*eT*eG*eT*e[5mC]*d[5mC]*dT*dA*dT*dA*dA*d[5mC]*dT*dA*dT*eA*eA*e[5mC]*eA*eA) [compound 547676] | 41 | –
547677 (antisense e[5mC]*eA*eT*e[5mC]*eA*d[5mC]*dT*dG*dT*d[5mC]*d[5mC]*dT*dA*dT*dA*eA*e[5mC]*eT*eA*eT) [compound 547677] | – | 62
547678 (antisense eT*eA*e[5mC]*e[5mC]*eT*dA*dT*dA*dT*d[5mC]*dA*d[5mC]*dT*dG*dT*eA*eA*e[5mC]*eT*eA) [compound 547678] | – | 21
547679 (antisense eT*eG*eT*eA*e[5mC]*d[5mC]*dT*dA*dT*dA*dT*d[5mC]*dA*d[5mC]*dT*eG*eT*eA*eA*e[5mC]) [compound 547679] | – | 28
547680 (antisense eT*eA*eT*e[5mC]*eA*d[5mC]*dT*dG*dT*dA*d[5mC]*d[5mC]*dT*dA*dT*eA*eT*e[5mC]*eA*e[5mC]) [compound 547680] | – | 41

Reference: patent US11840686B2, “Modulation of prekallikrein (PKK) expression” (Ionis Pharmaceuticals, Inc., priority 2013, dated 2023)
